Measurements reported in US20210253575A1, “PYRROLIDINE AMINE COMPOUNDS FOR THE TREATMENT OF AUTOIMMUNE DISEASE” (Hoffmann-La Roche Inc., priority 2018, published 2021).

Each compound was assayed against T1, human TLR7 (Homo sapiens, UniProt Q9NYK1) (assay: HEK293-Blue-hTLR-7 cells assay (SEAP reporter, R848 stimulation)). Conditions: HEK293-Blue-hTLR7 cells, R848 ligand, 20 hrs incubation.
T1 sequence (Q9NYK1 27-1049): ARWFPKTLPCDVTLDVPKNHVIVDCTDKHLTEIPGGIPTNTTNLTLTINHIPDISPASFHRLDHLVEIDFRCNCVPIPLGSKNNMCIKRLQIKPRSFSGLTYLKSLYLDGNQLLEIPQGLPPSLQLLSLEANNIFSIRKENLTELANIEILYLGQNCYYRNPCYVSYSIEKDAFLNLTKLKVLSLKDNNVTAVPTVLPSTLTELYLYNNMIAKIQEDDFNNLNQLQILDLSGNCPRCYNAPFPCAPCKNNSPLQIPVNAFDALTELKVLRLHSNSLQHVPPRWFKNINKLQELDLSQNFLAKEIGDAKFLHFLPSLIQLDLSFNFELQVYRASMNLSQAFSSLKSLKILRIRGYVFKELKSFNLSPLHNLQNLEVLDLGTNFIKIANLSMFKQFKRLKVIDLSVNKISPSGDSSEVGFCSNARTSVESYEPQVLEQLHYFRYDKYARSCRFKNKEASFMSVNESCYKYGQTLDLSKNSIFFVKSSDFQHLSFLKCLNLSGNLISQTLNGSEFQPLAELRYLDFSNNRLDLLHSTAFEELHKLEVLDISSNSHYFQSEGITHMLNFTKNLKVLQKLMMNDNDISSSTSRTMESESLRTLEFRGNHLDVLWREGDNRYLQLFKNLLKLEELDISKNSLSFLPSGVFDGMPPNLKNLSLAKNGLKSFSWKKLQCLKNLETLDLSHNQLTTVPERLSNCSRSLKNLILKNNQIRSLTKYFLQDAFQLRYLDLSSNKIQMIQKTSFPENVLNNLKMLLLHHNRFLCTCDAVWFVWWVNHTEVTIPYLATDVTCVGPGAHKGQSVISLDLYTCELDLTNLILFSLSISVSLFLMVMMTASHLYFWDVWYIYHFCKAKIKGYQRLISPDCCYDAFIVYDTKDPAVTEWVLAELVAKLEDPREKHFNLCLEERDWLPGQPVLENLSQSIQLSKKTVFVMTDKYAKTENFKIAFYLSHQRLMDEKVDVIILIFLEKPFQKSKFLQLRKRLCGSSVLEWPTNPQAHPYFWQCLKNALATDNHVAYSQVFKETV
Type: cell-based
Description: The following tests were carried out in order to determine the activity of the compounds of formula (I) in HEK293-Blue-hTLR-7/8/9 cells assay.
HEK293-Blue-hTLR-7 Cells Assay:
A stable HEK293-Blue-hTLR-7 cell line was purchased from InvivoGen (Cat. #: hkb-htlr7, San Diego, Calif., USA). These cells were originally designed for studying the stimulation of human TLR7 by monitoring the activation of NF-κB. A SEAP (secreted embryonic alkaline phosphatase) reporter gene was placed under the control of the IFN-β minimal promoter fused to five NF-κB and AP-1-binding sites. The SEAP was induced by activating NF-κB and AP-1 via stimulating HEK-Blue hTLR7 cells with TLR7 ligands. Therefore the reporter expression was declined by TLR7 antagonist under the stimulation of a ligand, such as R848 (Resiquimod), for incubation of 20 hrs. The cell culture supernatant SEAP reporter activity was determined using QUANTI-Blue™ kit (Cat. #: rep-qb1, Invivogen, San Diego, Ca, USA) at a wavelength of 640 nm, a detection medium that turns purple or blue in the presence of alkaline phosphatase.
HEK293-Blue-hTLR7 cells were incubated at a density of 250,000-450,000 cells/mL in a volume of 170 μL in a 96-well plate in Dulbecco's Modified Eagle's medium (DMEM) containing 4.5 g/L glucose, 50 U/mL penicillin, […], […], 2 mM L-glutamine, 10% (v/v) heat-inactivated fetal bovine serum with addition of 20 μL test compound in a serial dilution in the presence of final DMSO at 1% and 10 μL of 20 uM R848 in above DMEM, perform incubation under 37° C. in a CO2 incubator for 20 hrs. Then 20 μL of the supernatant from each well was incubated with 180 μL Quanti-blue substrate solution at 37° C. for 2 hrs and the absorbance was read at 620-655 nm using a spectrophotometer. The signalling pathway that TLR7 activation leads to downstream NF-κB activation has been widely accepted, and therefore similar reporter assay was modified for evaluating TLR7 antagonist.

| Compound | IC50 |
| --- | --- |
| N#Cc1ccc(N2CC(CN3CCC4(CCNCC4)CC3)C3(CC3)C2)c2nccnc12 (centres unmarked) [Example 16, 8-[7-(3,9-Diazaspiro[5.5]undecan-3-ylmethyl)-5-azaspiro[2.4]heptan-5-yl]quinoxaline-5-carbonitrile] | 113 nM |
| C[C@H]1CN(c2ccc(C#N)c3nccnc23)C[C@@H]1CN1CCC2(CCNCC2)CC1 [Example 17, 8-[(3S,4R)-3-(3,9-diazaspiro[5.5]undecan-3-ylmethyl)-4-methyl-pyrrolidin-1-yl]quinoxaline-5-carbonitrile] | 128 nM |
| N#Cc1ccc(N2CC(CN3C[C@H]4CNC[C@H]4C3)C3(CC3)C2)c2nccnc12 (stereo partly drawn) [Example 18, 8-[7-[[(3aR,6aS)-2,3,3a,4,6,6a-hexahydro-H-pyrrolo[3,4-c]pyrrol-5-yl]methyl]-5-azaspiro[2.4]heptan-5-yl]quinoxaline-5-carbonitrile] | 137 nM |
| FC(F)(F)c1ccc(N2CC(CN3CCNCC3)C3(CC3)C2)c2nccnc12 (centres unmarked) [Example 20, 5-[7-(Piperazin-1-ylmethyl)-5-azaspiro[2.4]heptan-5-yl]-8-(trifluoromethyl)quinoxaline] | 156 nM |
| N#Cc1ccc(N2CC(CN3CCC4(CCCNC4)C3)C3(CC3)C2)c2nccnc12 (centres unmarked) [Example 22, 8-[7-(2,9-Diazaspiro[4.5]decan-2-ylmethyl)-5-azaspiro[2.4]heptan-5-yl]quinoxaline-5-carbonitrile] | 201 nM |
| C[C@H]1CN(c2ccc(C#N)c3ncccc23)C[C@@H]1CN1CCC2(CCNCC2)CC1 [Example 23, 5-[(3S,4R)-3-(3,9-diazaspiro[5.5]undecan-3-ylmethyl)-4-methyl-pyrrolidin-1-yl]quinoline-8-carbonitrile] | 251 nM |
| N#Cc1ccc(N2CC(CN3CC4(CCCNC4)C3)C3(CC3)C2)c2nccnc12 (centres unmarked) [Example 24, 8-[7-(2,8-Diazaspiro[3.5]nonan-2-ylmethyl)-5-azaspiro[2.4]heptan-5-yl]quinoxaline-5-carbonitrile] | 298 nM |
| N#Cc1ccc(N2CC(CN3C4CCC3CC(N)C4)C3(CC3)C2)c2nccnc12 (centres unmarked) [Example 25, 8-[7-[(3-Amino-8-azabicyclo[3.2.1]octan-8-yl)methyl]-5-azaspiro[2.4]heptan-5-yl]quinoxaline-5-carbonitrile] | 311 nM |
| N#Cc1ccc(N2C[C@H](CN3CCC(N)CC3)[C@@H](C(F)(F)F)C2)c2nccnc12 [Example 26, 8-[(3S,4R)-3-[(4-Amino-1-piperidyl)methyl]-4-(trifluoromethyl)pyrrolidin-1-yl]quinoxaline-5-carbonitrile] | 55 nM |
| C[C@H]1CN(c2ccc(C#N)c3nccnc23)C[C@@H]1CN1CCC2(CCNC2)C1 (stereo partly drawn) [Example 30, 8-[(3S,4R)-3-(2,7-diazaspiro[4.4]nonan-2-ylmethyl)-4-methyl-pyrrolidin-1-yl]quinoxaline-5-carbonitrile] | 382 nM |
| FC(F)(F)c1ccc(N2CC(CN3CCC4(CCNCC4)CC3)C3(CC3)C2)c2nccnc12 (centres unmarked) [Example 31, 3-[[5-[8-(Trifluoromethyl)quinoxalin-5-yl]-5-azaspiro[2.4]heptan-7-yl]methyl]-3,9-diazaspiro[5.5]undecane] | 385 nM |
| N#Cc1ccc(N2CC(CN3CCC4(CCNCC4)C3)C3(CC3)C2)c2nccnc12 (centres unmarked) [Example 32, 8-[7-(2,8-Diazaspiro[4.5]decan-2-ylmethyl)-5-azaspiro[2.4]heptan-5-yl]quinoxaline-5-carbonitrile] | 402 nM |
| C[C@H]1CN(c2ccc(C#N)c3ncccc23)C[C@@H]1CN1CCC2(CCNC2)C1 (stereo partly drawn) [Example 35, 5-[(3S,4R)-3-(2,7-diazaspiro[4.4]nonan-2-ylmethyl)-4-methyl-pyrrolidin-1-yl]quinoline-8-carbonitrile] | 468 nM |
| N#Cc1ccc(N2CCC(CN3CCC4(CCNCC4)CC3)C2)c2nccnc12 (centres unmarked) [Example 37, 8-[3-(3,9-Diazaspiro[5.5]undecan-3-ylmethyl)pyrrolidin-1-yl]quinoxaline-5-carbonitrile] | 651 nM |
| N#Cc1ccc(N2CC(CNC3CCCNCC3)C3(CC3)C2)c2nccnc12 (centres unmarked) [Example 39, 8-[7-[(Azepan-4-ylamino)methyl]-5-azaspiro[2.4]heptan-5-yl]quinoxaline-5-carbonitrile] | 709 nM |
| C[C@@H]1CN(c2ccc(C(F)(F)F)c3nccnc23)C[C@H]1CNC1CCCNCC1 (some centres unmarked) [Example 40] | 746 nM |
| FC(F)(F)c1ccc(N2CC(CN3C[C@H]4CNC[C@H]4C3)C3(CC3)C2)c2nccnc12 (stereo partly drawn) [Example 41, 5-[7-[[(3aR,6aS)-2,3,3a,4,6,6a-hexahydro-H-pyrrolo[3,4-c]pyrrol-5-yl]methyl]-5-azaspiro[2.4]heptan-5-yl]-8-(trifluoromethyl)quinoxaline] | 821 nM |
| N#Cc1ccc(N2CC(CN3CC4(CC(N)C4)C3)C3(CC3)C2)c2nccnc12 (centres unmarked) [Example 42, 8-[7-[(6-Amino-2-azaspiro[3.3]heptan-2-yl)methyl]-5-azaspiro[2.4]heptan-5-yl]quinoxaline-5-carbonitrile] | 867 nM |
| N#Cc1ccc(N2CC(CN3CCC4(CCNC4)C3)C3(CC3)C2)c2cccnc12 (centres unmarked) [Example 43, 5-[7-(2,7-Diazaspiro[4.4]nonan-2-ylmethyl)-5-azaspiro[2.4]heptan-5-yl]quinoline-8-carbonitrile] | 899 nM |
| N#Cc1ccc(N2C[C@H](CN3CCC4(CCCNC4)CC3)[C@@H](C(F)(F)F)C2)c2nccnc12 [Example 45, 8-[(3S,4R)-3-(2,9-diazaspiro[5.5]undecan-9-ylmethyl)-4-(trifluoromethyl)pyrrolidin-1-yl]quinoxaline-5-carbonitrile] | 49 nM |
| N#Cc1ccc(N2C[C@H](CN3CCC4(CCNCC4)C3)[C@@H](C(F)(F)F)C2)c2nccnc12 [Example 46, 8-[(3S,4R)-3-(2,8-diazaspiro[4.5]decan-2-ylmethyl)-4-(trifluoromethyl)pyrrolidin-1-yl]quinoxaline-5-carbonitrile] | 93 nM |
| N#Cc1ccc(N2C[C@H](CN3CC4(CC(N)C4)C3)[C@@H](C(F)(F)F)C2)c2nccnc12 [Example 47, 8-[(3S,4R)-3-[(6-amino-2-azaspiro[3.3]heptan-2-yl)methyl]-4-(trifluoromethyl)pyrrolidin-1-yl]quinoxaline-5-carbonitrile] | 88 nM |
| N#Cc1ccc(N2C[C@H](CN3CC4(CCNCC4)C3)[C@@H](C(F)(F)F)C2)c2nccnc12 [Example 48, 8-[(3S,4R)-3-(2,7-diazaspiro[3.5]nonan-2-ylmethyl)-4-(trifluoromethyl)pyrrolidin-1-yl]quinoxaline-5-carbonitrile] | 51 nM |
| N#Cc1ccc(N2CC(CN3CCC4(CC3)CNCCO4)C3(CC3)C2)c2nccnc12 (centres unmarked) [Example 49, 8-[7-(1-Oxa-4,9-diazaspiro[5.5]undecan-9-ylmethyl)-5-azaspiro[2.4]heptan-5-yl]quinoxaline-5-carbonitrile] | 153 nM |
| N#Cc1ccc(N2CC(CN3CC4CCNCC43)C3(CC3)C2)c2nccnc12 (centres unmarked) [Example 50, 8-[7-(3,8-Diazabicyclo[4.2.0]octan-8-ylmethyl)-5-azaspiro[2.4]heptan-5-yl]quinoxaline-5-carbonitrile] | 232 nM |
| N#Cc1ccc(N2C[C@H](CN3CCC(N)CC3)[C@@H](C(F)(F)F)C2)c2nccnc12 [Example 51, 8-[(3S,4R)-3-[(4-amino-1-piperidyl)methyl]-4-(trifluoromethyl)pyrrolidin-1-yl]quinoxaline-5-carbonitrile] | 90 nM |
